Measured values published in ChEMBL document CHEMBL1201862, “PubChem BioAssay data set” (2004).
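Cultured in 96-well plates, cells were exposed to test compound for 48 hours across five concentrations. GI50 is the concentration that inhibits growth by half.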 Active and inactive are the calls of the source. Rule as the data show it: active = GI50 up to about 1.1 µM and inactive = higher.

Tests used:
Assay in all cases: inhibition of tumour cell growth, NCI panel, 48 h
NCI-H460 = tested on: NCI-H460
A549 = tested on: A549
RXF 393 = tested on: RXF 393
HCT-15 = tested on: HCT-15
OVCAR-4 = tested on: OVCAR-4
SR = tested on: SR
SF-295 = tested on: SF-295
SK-MEL-2 = tested on: SK-MEL-2
PC-3 = tested on: PC-3
UACC-257 = tested on: UACC-257
HCT-116 = tested on: HCT-116
SW-620 = tested on: SW-620
HOP-92 = tested on: HOP-92
HOP-62 = tested on: HOP-62
SNB-75 = tested on: SNB-75
KM12 = tested on: KM12
SF-268 = tested on: SF-268
IGROV-1 = tested on: IGROV-1
RPMI-8226 = tested on: RPMI-8226
COLO 205 = tested on: COLO 205
SK-MEL-28 = tested on: SK-MEL-28
NCI-H522 = tested on: NCI-H522
NCI-H226 = tested on: NCI-H226
SK-OV-3 = tested on: SK-OV-3
NCI/ADR-RES = tested on: NCI/ADR-RES
SNB-19 = tested on: SNB-19
CAKI-1 = tested on: CAKI-1
MCF7 = tested on: MCF7
TK-10 = tested on: TK-10
EKVX = tested on: EKVX
HCC 2998 = tested on: HCC 2998
Malme-3M = tested on: Malme-3M
ACHN = tested on: ACHN
K562 = tested on: K562
786-0 = tested on: 786-0
SK-MEL-5 = tested on: SK-MEL-5
M14 = tested on: M14
OVCAR-8 = tested on: OVCAR-8
OVCAR-5 = tested on: OVCAR-5
MOLT-4 = tested on: MOLT-4
HL-60 = tested on: HL-60
HT-29 = tested on: HT-29
CCRF-CEM = tested on: CCRF-CEM
MDA-MB-231 = tested on: MDA-MB-231
OVCAR-3 = tested on: OVCAR-3
Hs-578T = tested on: Hs-578T
LOX IMVI = tested on: LOX IMVI
SN12C = tested on: SN12C
NCI-H23 = tested on: NCI-H23
SF-539 = tested on: SF-539
UACC-62 = tested on: UACC-62
UO-31 = tested on: UO-31
MDA-N = tested on: MDA-N
MDA-MB-435 = tested on: MDA-MB-435
DU-145 = tested on: DU-145
U-251 = tested on: U-251
A498 = tested on: A498

Cc1ccc(NC(=O)c2cc3ccccc3c(/N=N\c3ccccc3O)c2O)c(C)c1
GI50 (NCI-H460): 0.44 µM (active)
GI50 (A549): 2.25 µM (inactive)
GI50 (RXF 393): 3.67 µM (inactive)
GI50 (HCT-15): 0.614 µM
GI50 (OVCAR-4): 1.63 µM (inactive)
GI50 (SR): 0.373 µM (active)
GI50 (SF-295): 0.863 µM (active)
GI50 (SK-MEL-2): 2.98 µM (inactive)
GI50 (PC-3): 1.63 µM (inactive)
GI50 (UACC-257): 4.75 µM (inactive)
GI50 (HCT-116): 0.664 µM (active)
GI50 (SW-620): 1.69 µM (inactive)
GI50 (HOP-92): 2.95 µM (inactive)
GI50 (HOP-62): 1.03 µM (active)
GI50 (SNB-75): 0.053 µM (active)
GI50 (KM12): 1.45 µM (inactive)
GI50 (SF-268): 0.687 µM (active)
GI50 (IGROV-1): 1.14 µM (inactive)
GI50 (RPMI-8226): 1.78 µM (inactive)
GI50 (COLO 205): 3.02 µM (inactive)
GI50 (SK-MEL-28): 5.09 µM (inactive)
GI50 (NCI-H522): 1.01 µM (active)
GI50 (NCI-H226): 2.82 µM (inactive)
GI50 (SK-OV-3): 1.86 µM (inactive)
GI50 (NCI/ADR-RES): 1.54 µM (inactive)
GI50 (SNB-19): 1.2 µM (inactive)
GI50 (CAKI-1): 1.19 µM (inactive)
GI50 (MCF7): 2.16 µM (inactive)
GI50 (TK-10): 5.31 µM (inactive)
GI50 (EKVX): 2.75 µM (inactive)
GI50 (HCC 2998): 5.06 µM (inactive)
GI50 (Malme-3M): 0.809 µM (active)
GI50 (ACHN): 1.88 µM (inactive)
GI50 (K562): 3.09 µM (inactive)
GI50 (786-0): 1.32 µM (inactive)
GI50 (SK-MEL-5): 1.03 µM (active)
GI50 (M14): 0.839 µM (active)
GI50 (OVCAR-8): 0.859 µM (active)
GI50 (OVCAR-5): 3.1 µM (inactive)
GI50 (MOLT-4): 1.25 µM (inactive)
GI50 (HL-60): 1.14 µM (inactive)
GI50 (HT-29): 3.13 µM (inactive)
GI50 (CCRF-CEM): 0.818 µM (active)
GI50 (MDA-MB-231): 2 µM (inactive)
GI50 (OVCAR-3): 0.37 µM (active)
GI50 (Hs-578T): 1.64 µM (inactive)

COc1cc(O)c2c(=O)cc(-c3ccc(O)cc3O)oc2c1CC=C(C)C [ARTOCARPETIN A]
GI50 (NCI-H460): 14.3 µM (inactive)
GI50 (A549): 14.2 µM (inactive)
GI50 (RXF 393): 6.3 µM (inactive)
GI50 (LOX IMVI): 11.9 µM (inactive)
GI50 (HCT-15): 11.6 µM
GI50 (OVCAR-4): 13.1 µM (inactive)
GI50 (SR): 4.5 µM (inactive)
GI50 (SF-295): 12.9 µM (inactive)
GI50 (SK-MEL-2): 17.2 µM (inactive)
GI50 (SN12C): 16.4 µM (inactive)
GI50 (PC-3): 12.9 µM (inactive)
GI50 (UACC-257): 28.4 µM (inactive)
GI50 (HCT-116): 18.1 µM (inactive)
GI50 (SW-620): 24.3 µM (inactive)
GI50 (HOP-92): 19.6 µM (inactive)
GI50 (NCI-H23): 17.6 µM (inactive)
GI50 (SF-539): 18.1 µM (inactive)
GI50 (SNB-75): 20.7 µM (inactive)
GI50 (KM12): 6.12 µM (inactive)
GI50 (SF-268): 17.4 µM (inactive)
GI50 (IGROV-1): 20.3 µM (inactive)
GI50 (UACC-62): 20 µM (inactive)
GI50 (RPMI-8226): 20.3 µM (inactive)
GI50 (COLO 205): 9.25 µM (inactive)
GI50 (SK-MEL-28): 29.1 µM (inactive)
GI50 (NCI-H522): 16 µM (inactive)
GI50 (NCI-H226): 12.2 µM (inactive)
GI50 (UO-31): 17.9 µM (inactive)
GI50 (NCI/ADR-RES): 27 µM (inactive)
GI50 (SNB-19): 18.3 µM (inactive)
GI50 (CAKI-1): 17.1 µM (inactive)
GI50 (MCF7): 20.3 µM (inactive)
GI50 (TK-10): 27.7 µM (inactive)
GI50 (EKVX): 26.1 µM (inactive)
GI50 (Malme-3M): 16.3 µM (inactive)
GI50 (ACHN): 16.3 µM (inactive)
GI50 (K562): 17 µM (inactive)
GI50 (MDA-N): 19.3 µM (inactive)
GI50 (786-0): 26.6 µM (inactive)
GI50 (SK-MEL-5): 18.3 µM (inactive)
GI50 (M14): 13.8 µM (inactive)
GI50 (OVCAR-8): 16.9 µM (inactive)
GI50 (OVCAR-5): > 100 µM (inactive)
GI50 (MOLT-4): 8.93 µM (inactive)
GI50 (HL-60): 10.4 µM (inactive)
GI50 (MDA-MB-435): 18.7 µM (inactive)
GI50 (HT-29): 4.35 µM (inactive)
GI50 (DU-145): 30.2 µM (inactive)
GI50 (CCRF-CEM): 15.4 µM (inactive)
GI50 (MDA-MB-231): 22.1 µM (inactive)
GI50 (U-251): 17.1 µM (inactive)
GI50 (Hs-578T): 28.4 µM (inactive)
GI50 (A498): 22.1 µM (inactive)
